According to patent US20120302636A1, “METHOD OF TREATING A DISORDER ASSOCIATED WITH MTP” (priority 2009, published 2012):

Tests used:
[1] = 3-month oral repeated dose toxicity study in dogs; type: in vivo; details: 25 mg/kg
[2] = Example 4: 8-week study in hyperlipidemia, safety; type: in vivo, human
Description: One hundred five Japanese patients with hyperlipidemia (LDL-C between 140 and 220 mg/dL; TG≦400 mg/dL) participated in the study. […] For the efficacy analysis, 95 subjects were observed (0.5 mg BID: 25 subjects, 1 mg BID: 24 subjects, 2 mg BID: 22 subjects, 4 mg BID: 24 subjects).

[3] = Example 5: fixed-dose or escalating doses, safety; type: in vivo, human
Description: Fifty-two Japanese patients with hyperlipidemia (LDL-C between 140 and 220 mg/dL; TG≦400 mg/dL) participated in the study. […] One group received a fixed dose of 2 mg per tablet through the entire study. The other group received escalating doses of 0.5 mg (weeks 1-4), 1 mg (weeks 5-8), and 2 mg (weeks 9-12). For the efficacy analysis, 50 subjects were observed (25 in the fixed-dose group and 25 in the dose escalation group).
The objective of this study was preliminary evaluation of the efficacy (based on serum lipid levels), safety, and pharmacokinetics of the compound of formula (I) administered orally twice daily after breakfast and supper for 12 weeks as a fixed dose (4 mg/day) or escalating dose (1 mg/day, 2 mg/day and 4 mg/day) regimen in patients with hyperlipidemia.

[4] = Example 8: safety; type: in vivo, human
Text: The study had 180 participants.

[5] = test system: gut hormone (GLP-1 active, PYY total, GIP total) levels; test: Example 9: gut hormone levels in obese male subjects; type: in vivo, human; details: for increase in GLP-1 active compared with placebo / increase in PYY total compared with placebo: 4 hours after dinner
Description: The study enrolled 16 obese male subjects (18-65 years of age (inclusive), with a body mass index (BMI) >30.0 kg/m^2 and <40.0 kg/m^2) who participated in two treatment periods. During Period 1, 8 subjects were randomized to receive 3.5 mg of the compound of formula (I), and 8 subjects were randomized to receive placebo. The compound of formula (I) or placebo was administered twice daily (BID), 30 minutes after the start of breakfast and dinner, for 10 days. All subjects were discharged from the clinic at the end of Period 1 for a 9±2 day discharge period. Subjects then returned for treatment during Period 2, in which (i) the group previously receiving the compound of formula (I) now received placebo, and (ii) the group previously receiving placebo now received the compound of formula (I), in accordance with the protocol described above.
The primary objective of this study was to examine the change in gut hormone levels. The co-primary endpoints were trough gut hormone (glucagon-like peptide 1 (GLP-1) active, peptide tyrosine tyrosine (PYY) total, and gastric inhibitory polypeptide (GIP) total) levels on Day 10 in each treatment period and the trough gut hormone profile throughout the study. On Day 10 of each treatment period, statistically significant mean increases in GLP-1 active (60%) and PYY total (43%) were observed during administration of the compound of formula (I) compared with placebo, whereas no change in GIP total relative to placebo was found.

[6] = Example 8: pharmacokinetics (trough concentrations)
Description: This example involved a clinical study of the compound of formula (I), which was a randomized, double-blind, placebo-controlled, parallel group study to evaluate the efficacy of the compound of formula (I) administered twice daily for twelve weeks in obese subjects.

CCOC(=O)C(COC(=O)Cc1ccc(NC(=O)c2ccccc2-c2ccc(C(F)(F)F)cc2)c(C(=O)N(C)C)c1)(C(=O)OCC)c1ccccc1 [compound of formula (I), diethyl 2-((2-(3-(dimethylcarbamoyl)-4-(4′-(trifiuoromethyl)biphenyl-2-ylcarboxamido)phenyl)acetoxy)methyl)-2-phenyl malonate]
toxicity findings ([1]; 3-month safety study): no toxicity findings
vitamins D and E ([1]; 3 months oral): decreased or tended to decrease
incidence of moderate diarrhea ([2]; 0.5 mg BID): 8.0%
number of adverse events ([2]; 0.5 mg BID): 20
number of moderate diarrhea events ([2]; 0.5 mg BID): 2
subjects with adverse events (incidence) ([2]; 0.5 mg BID): 44.0%
incidence of diarrhea ([2]; 1 mg BID): 15.9%
incidence of moderate diarrhea ([2]; 1 mg BID): 0.0%
number of adverse events ([2]; 1 mg BID): 60
number of diarrhea events ([2]; 1 mg BID): 6
number of moderate diarrhea events ([2]; 1 mg BID): 0
subjects with adverse events (incidence) ([2]; 1 mg BID): 75.0%
incidence of diarrhea ([2]; 2 mg BID): 24.0%
incidence of moderate diarrhea ([2]; 2 mg BID): 12.0%
number of adverse events ([2]; 2 mg BID): 51
number of diarrhea events ([2]; 2 mg BID): 12
number of moderate diarrhea events ([2]; 2 mg BID): 4
subjects with adverse events (incidence) ([2]; 2 mg BID): 80.0%
incidence of diarrhea ([2]; 4 mg BID): 40.7%
incidence of moderate diarrhea ([2]; 4 mg BID): 29.6%
number of adverse events ([2]; 4 mg BID): 82
number of diarrhea events ([2]; 4 mg BID): 21
number of moderate diarrhea events ([2]; 4 mg BID): 13
subjects with adverse events (incidence) ([2]; 4 mg BID): 85.2%
death or serious adverse events ([2]; 0.5-4 mg BID capsules, 8 weeks): neither death nor other serious adverse events occurred
events of gastrointestinal disorders ([2]; 105 subjects): 117
events of infections and infestations ([2]; 105 subjects): 11
events of investigations ([2]; 105 subjects): 49
events of metabolism and nutrition disorders ([2]; 105 subjects): 7
events of musculoskeletal, and connective tissue disorders ([2]; 105 subjects): 7
incidence of gastrointestinal disorders (SOC) ([2]; 105 subjects): 47.6%
incidence of infections and infestations (SOC) ([2]; 105 subjects): 9.5%
incidence of investigations (SOC) ([2]; 105 subjects): 31.4%
incidence of metabolism and nutrition disorders (SOC) ([2]; 105 subjects): 6.7%
incidence of moderate adverse events ([2]; 105 subjects): 18.1%
incidence of musculoskeletal, and connective tissue disorders (SOC) ([2]; 105 subjects): 6.7%
laboratory abnormality ALT, subjects ([2]; 105 subjects): 5.7%
laboratory abnormality CPK, subjects ([2]; 105 subjects): 6.7%
laboratory abnormality CRP, subjects ([2]; 105 subjects): 3.8%
laboratory abnormality IP, subjects ([2]; 105 subjects): 2.9%
laboratory abnormality γ-GTP, subjects ([2]; 105 subjects): 3.8%
number of moderate adverse events ([2]; 105 subjects): Twenty-six
number of adverse events ([2]; all 105 subjects): 213
subjects with adverse events (incidence) ([2]; all 105 subjects): 71.45%
fat-soluble vitamins (vitamin A, 25-OH vitamin D, and vitamin E) ([2]; in vivo): no clinically significant changes
subjects withdrawn from the study treatment because of adverse events ([2]; of 105 subjects): four
events of gastrointestinal disorders ([3]; dose escalation group): 14
events of infections and infestations ([3]; dose escalation group): 6
events of laboratory test ([3]; dose escalation group): 11
incidence of gastrointestinal disorders (SOC) ([3]; dose escalation group): 34.6%
incidence of infections and infestations (SOC) ([3]; dose escalation group): 19.2%
incidence of laboratory test (SOC) ([3]; dose escalation group): 23.1%
incidence of moderate adverse events ([3]; dose escalation group): 15.4%
number of adverse events ([3]; dose escalation group): 37
subjects with adverse events (incidence) ([3]; dose escalation group): 65.4%
subjects with moderate diarrhea ([3]; dose escalation group): three
incidence of gastrointestinal disorders ([3]; dose escalation group, Weeks 9 to 12 (4 mg/day)): 20.0%
events of gastrointestinal disorders ([3]; fixed-dose group): 25
events of infections and infestations ([3]; fixed-dose group): four
events of laboratory test ([3]; fixed-dose group): nine
incidence of gastrointestinal disorders (SOC) ([3]; fixed-dose group): 50.0%
incidence of infections and infestations (SOC) ([3]; fixed-dose group): 15.4%
incidence of laboratory test (SOC) ([3]; fixed-dose group): 23.1%
incidence of moderate adverse events ([3]; fixed-dose group): 15.4%
number of adverse events ([3]; fixed-dose group): 45
subjects with adverse events (incidence) ([3]; fixed-dose group): 65.4%
subjects with moderate diarrhea ([3]; fixed-dose group): four
incidence of gastrointestinal disorders ([3]; fixed-dose group, Weeks 1 to 4 (4 mg/day)): 46.2%
systolic and diastolic blood pressure, pulse rate, body temperature, body weight, ultrasonography ([3]; in vivo): No clinically relevant abnormal changes
death or serious adverse events ([3]; tablets BID, 12 weeks): No death or other serious adverse events occurred
incidence of drug-related decreased appetite ([4]; 1 mg BID): 4.4%
incidence of drug-related decreased appetite ([4]; 2.5 mg BID): 20.0%
subjects prematurely discontinued due to diarrhea ([4]; 2.5 mg BID): 1 subject
incidence of drug-related decreased appetite ([4]; 3.5 mg BID): 22.2%
subjects prematurely discontinued due to diarrhea ([4]; 3.5 mg BID): 2 subject
tolerability ([4]; 1 to 3.5 mg BID, 12 weeks): generally well tolerated
fat-soluble vitamins or coagulation factors ([4]; in vivo): no clinically significant changes
liver function parameters (AST, ALT, alkaline phosphatase) PCS values ([4]; in vivo): no subject had a PCS value
mean increase in trough GLP-1 active compared with placebo ([5]; 3.5 mg BID, Day 10): 60%
mean increase in trough PYY total compared with placebo ([5]; 3.5 mg BID, Day 10): 43%
trough GIP total relative to placebo ([5]; 3.5 mg BID, Day 10): no change
increase in GLP-1 active compared with placebo ([5]; Day 2): 38%
increase in PYY total compared with placebo ([5]; Day 2): 44%
increase in GLP-1 active compared with placebo ([5]; Day 9): 71%
increase in PYY total compared with placebo ([5]; Day 9): 42%
GIP total relative to placebo ([5]; 4 hours post-dinner, Day 2 and Day 9): No statistically significant differences
gut hormone AUC profiles around breakfast ([5]; Day 2, -0.5 to 3.5 hours relative to dosing): no significant changes
GIP total profile ([5]; Day 2 or Day 9): No significant changes
average increase in GLP-1 active around breakfast ([5]; Day 9): 38%
average increase in PYY total around breakfast ([5]; Day 9): 51%
decrease in AUC for GIP total compared with placebo ([5]; Day 9, around breakfast): 17%
increase in AUC for GLP-1 active compared with placebo ([5]; Day 9, around breakfast): 31%
increase in AUC for PYY total compared with placebo ([5]; Day 9, around breakfast): 39%
average increase in trough PYY total ([5]; days 2 through 11): 63%
average increase in trough GIP total ([5]; days 3, 5 and 11): 24%
average increase in trough GLP-1 active ([5]; days 3 through 11): 45%
trough concentrations of the compound of formula (I) ([6]; 1 mg BID): not quantifiable
trough concentrations of the compound of formula (I) ([6]; 2.5 and 3.5 mg BID): quantifiable in a few subjects
